≈ marks a conversion by molar mass, not a printed value. Calls of active or inactive are those of the source. No cut-off for these calls is given here.
Assays:
Plasmodium falciparum [1] = test: Antiplasmodial activity against multidrug-resistant Plasmodium falciparum Dd2 harboring DHODH-C276F mutant infected in erythrocytes assessed as inhibition of parasite growth incubated for 72 hrs by [3H]hypoxanthine incorporation based microbeta counting analysis; type: functional, organism-based; conditions: Dd2, Erythrocyte
[2] = Intrinsic clearance in human liver microsomes at 1 uM measured for 60 mins by LC-MS/MS analysis; type: ADME, Microsome; conditions: read-out: CLH
Plasmodium falciparum [3] = test: (§1) Resistance ratio of EC50 for antiplasmodial activity against drug-resistant recrudescent Plasmodium falciparum Dd2-B2 in 2x10^5 to 2x10^6 bulk culture selection measured on day 15 under initial selection drug pressure concentration of 3XEC50 to EC50 for antiplasmodial activity against Plasmodium flaciparum Dd2-B2 measured after 72 hrs; type: functional
Plasmodium falciparum [4] = test: Antiplasmodial activity against drug-resistant recrudescent Plasmodium falciparum Dd2-B2 in 2x10^7 bulk culture selection assessed as inhibition of parasite growth incubated for 72 hrs by flow cytometry; type: functional, organism-based
CYP2C19 [5] = target: T1, CYP2C19 (Homo sapiens, UniProt P33261); test: Inhibition of CYP2C19 (unknown origin) at 10 uM relative to control; type: ADME
T1 sequence (P33261 whole entry): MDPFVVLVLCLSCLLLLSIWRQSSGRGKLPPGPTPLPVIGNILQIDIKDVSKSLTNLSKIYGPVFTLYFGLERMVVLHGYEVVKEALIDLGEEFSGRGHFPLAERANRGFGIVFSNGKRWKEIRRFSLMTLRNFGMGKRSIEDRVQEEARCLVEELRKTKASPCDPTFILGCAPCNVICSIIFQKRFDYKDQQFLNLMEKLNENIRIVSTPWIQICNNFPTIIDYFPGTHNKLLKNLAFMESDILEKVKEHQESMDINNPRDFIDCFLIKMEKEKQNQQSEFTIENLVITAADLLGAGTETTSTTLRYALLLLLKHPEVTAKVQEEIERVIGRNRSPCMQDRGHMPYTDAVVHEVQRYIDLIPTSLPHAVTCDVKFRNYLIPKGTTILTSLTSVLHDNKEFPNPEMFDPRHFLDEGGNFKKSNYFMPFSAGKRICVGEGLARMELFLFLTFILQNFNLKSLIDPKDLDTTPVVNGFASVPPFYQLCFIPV

CYP2C9 [6] = target: T2, CYP2C9 (Homo sapiens, UniProt P11712); test: Inhibition of CYP2C9 (unknown origin) at 10 uM relative to control; type: ADME
T2 sequence (P11712 whole entry): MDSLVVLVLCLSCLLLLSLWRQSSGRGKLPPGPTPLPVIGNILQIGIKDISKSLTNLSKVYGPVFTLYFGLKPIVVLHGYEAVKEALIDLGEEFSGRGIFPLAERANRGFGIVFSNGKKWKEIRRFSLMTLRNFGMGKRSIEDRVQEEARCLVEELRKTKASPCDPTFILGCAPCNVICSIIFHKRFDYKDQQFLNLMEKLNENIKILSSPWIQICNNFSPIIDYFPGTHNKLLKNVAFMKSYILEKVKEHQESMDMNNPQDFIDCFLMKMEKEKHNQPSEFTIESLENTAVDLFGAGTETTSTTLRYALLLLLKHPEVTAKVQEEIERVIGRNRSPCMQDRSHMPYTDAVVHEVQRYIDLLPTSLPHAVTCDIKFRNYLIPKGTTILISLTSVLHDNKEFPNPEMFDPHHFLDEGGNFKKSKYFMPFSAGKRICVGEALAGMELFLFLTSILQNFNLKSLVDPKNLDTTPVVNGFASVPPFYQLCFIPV

Plasmodium falciparum [7] = test: Antiplasmodial activity against multidrig-resistant Plasmodium falciparum Dd2 harboring eEF2Y-I86N mutant infected in erythrocytes assessed as inhibition of parasite growth incubated for 72 hrs by [3H]hypoxanthine incorporation based microbeta counting analysis; type: functional, organism-based; conditions: Dd2, Erythrocyte
Plasmodium falciparum [8] = test: Antiplasmodial activity against ring stage of Plasmodium falciparum 3D7 expressing ABCI3-HAreg assessed as inhibition of parasite proliferation incubated for 72 hrs in absence of ABCI3 inhibitor, GlcN by SYBR dye based flow cytometry; type: functional, organism-based; conditions: 3D7, 72 h
Plasmodium falciparum [9] = test: Antiplasmodial activity against Plasmodium falciparum Dd2 infected in erythrocytes assessed as inhibition of parasite growth incubated for 72 hrs by [3H]hypoxanthine incorporation based microbeta counting analysis; type: functional, organism-based; conditions: Dd2, Erythrocyte
Plasmodium falciparum [10] = test: Antiplasmodial activity against multidrug-resistant Plasmodium falciparum K1 infected in erythrocytes assessed as inhibition of parasite growth incubated for 72 hrs by [3H]hypoxanthine incorporation based microbeta counting analysis; type: functional, organism-based; conditions: K1, Erythrocyte
Plasmodium falciparum [11] = test: Antiplasmodial activity against multidrug-resistant Plasmodium falciparum TM90-C2B infected in erythrocytes assessed as inhibition of parasite growth incubated for 72 hrs by [3H]hypoxanthine incorporation based microbeta counting analysis; type: functional, organism-based; conditions: Erythrocyte
CYP2D6 [12] = target: T3, CYP2D6 (Homo sapiens, UniProt P10635); test: Inhibition of CYP2D6 (unknown origin) at 10 uM relative to control; type: ADME
T3 sequence (P10635 whole entry): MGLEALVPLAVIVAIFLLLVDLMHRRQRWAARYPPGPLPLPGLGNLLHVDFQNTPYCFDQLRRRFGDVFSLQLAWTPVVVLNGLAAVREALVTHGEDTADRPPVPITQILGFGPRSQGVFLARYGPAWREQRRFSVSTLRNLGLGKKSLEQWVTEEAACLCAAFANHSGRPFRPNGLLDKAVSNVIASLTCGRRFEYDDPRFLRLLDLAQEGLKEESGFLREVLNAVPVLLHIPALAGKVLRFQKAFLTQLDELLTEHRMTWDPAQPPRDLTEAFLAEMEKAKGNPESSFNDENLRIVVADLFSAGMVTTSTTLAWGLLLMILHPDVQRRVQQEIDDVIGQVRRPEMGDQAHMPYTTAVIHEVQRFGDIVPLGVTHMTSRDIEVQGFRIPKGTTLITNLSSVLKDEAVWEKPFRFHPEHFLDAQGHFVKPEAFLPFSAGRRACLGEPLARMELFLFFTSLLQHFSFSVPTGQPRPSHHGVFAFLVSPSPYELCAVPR

[13] = Permeability of the compound across basolateral to apical side in human Caco-2 cells at pH 7.4; type: ADME, cell-based; conditions: Caco-2, pH 7.4, read-out: permeability
[14] = Aqueous solubility of the compound in PBS buffer at pH 7.4 at 200 uM incubated for 2 hrs under shaking condition by miniaturized shake flask method; type: physicochemical
Plasmodium falciparum [15] = test: Antiplasmodial activity against multidrug-resistant Plasmodium falciparum Dd2 harboring PI4K-S743F mutant infected in erythrocytes assessed as inhibition of parasite growth incubated for 72 hrs by [3H]hypoxanthine incorporation based microbeta counting analysis; type: functional, organism-based; conditions: Dd2, Erythrocyte
Plasmodium falciparum [16] = test: as §1, with “in 2x10^7” for “in 2x10^5 to 2x10^6”, “flaciparum Dd2” for “flaciparum Dd2-B2”; type: functional
Plasmodium falciparum [17] = test: Antiplasmodial activity against multidrug-resistant Plasmodium falciparum NF54 infected in erythrocytes assessed as inhibition of parasite growth incubated for 72 hrs by [3H]hypoxanthine incorporation based microbeta counting analysis; type: functional, organism-based; conditions: NF54, Erythrocyte
Plasmodium falciparum [18] = test: Antiplasmodial activity against ring stage of Plasmodium falciparum 3D7 expressing ABCI3-HAreg assessed as inhibition of parasite proliferation incubated for 72 hrs in presence of ABCI3 inhibitor, GlcN by SYBR dye based flow cytometry; type: functional, organism-based; conditions: 3D7, 72 h
[19] = Efflux ratio of permeability across basolateral to apical side over apical to basolateral side in human Caco-2 cells at pH 7.4; type: ADME, cell-based; conditions: Caco-2, pH 7.4
[20] = Cytotoxicity against human HepG2 cells assessed as inhibition of cell growth incubated for 48 hrs by CellTiter-Glo luminescence assay; type: toxicity, cell-based
CYP2C9 [21] = target: T2, CYP2C9; test: Inhibition of CYP2C9 (unknown origin) at 1 uM relative to control; type: ADME
[22] = Ratio of EC50 for antiplasmodial activity against ring stage of Plasmodium falciparum 3D7 expressing ABCI3-HAreg in absence of ABCI3 inhibitor, GlcN to EC50 for antiplasmodial activity against ring stage of Plasmodium falciparum 3D7 expressing ABCI3-HAreg in presence of ABCI3 inhibitor, GlcN; type: functional
CYP2C19 [23] = target: T1, CYP2C19; test: Inhibition of CYP2C19 (unknown origin) at 1 uM relative to control; type: ADME
CYP3A4 = CYP3A4 (Homo sapiens, UniProt P08684); test: Inhibition of CYP3A4 (unknown origin) at 10 uM relative to control; type: ADME
CYP3A4, sequence (P08684 whole entry): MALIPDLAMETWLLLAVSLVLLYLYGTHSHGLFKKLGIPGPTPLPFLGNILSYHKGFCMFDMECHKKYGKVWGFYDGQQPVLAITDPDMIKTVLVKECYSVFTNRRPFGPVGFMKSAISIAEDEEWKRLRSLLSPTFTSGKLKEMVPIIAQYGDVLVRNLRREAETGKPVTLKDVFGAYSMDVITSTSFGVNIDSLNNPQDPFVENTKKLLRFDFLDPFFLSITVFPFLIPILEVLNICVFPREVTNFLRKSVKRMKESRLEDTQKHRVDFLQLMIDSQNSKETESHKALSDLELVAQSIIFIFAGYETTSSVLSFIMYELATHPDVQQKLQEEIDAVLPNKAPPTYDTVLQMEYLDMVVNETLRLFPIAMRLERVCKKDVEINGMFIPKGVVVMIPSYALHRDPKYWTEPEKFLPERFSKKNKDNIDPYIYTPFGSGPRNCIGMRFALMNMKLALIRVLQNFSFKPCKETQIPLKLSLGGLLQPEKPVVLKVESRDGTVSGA

Plasmodium falciparum [24] = test: Antiplasmodial activity against drug-resistant Plasmodium falciparum Dd2-B2 in 2x10^7 bulk culture selection assessed as concentration required to complete parasite killing measured on day 2 under initial selection drug pressure concentration of 3XEC50 by Minimum inoculum of resistance analysis; type: functional; conditions: time 2 day
[25] = Lipophilicity, elogD of the compound in 1-Octanol/PBS at pH 7.4 at 7.5 uM incubated for 2 hrs by miniaturized shake flask method; type: physicochemical
Plasmodium falciparum [26] = test: Antiplasmodial activity against asexual blood stage of Plasmodium falciparum 3D7 assessed as inhibition of parasite growth incubated for 72 hrs by LDH assay; type: functional, organism-based; conditions: 3D7, 72 h
[27] = Intrinsic clearance in rat hepatocytes at 1 uM measured per million cells for 90 mins by LC-MS/MS analysis; type: ADME, cell-based, Hepatocyte; conditions: read-out: CLH
Plasmodium falciparum [28] = test: Antimalarial activity against asexual stage of Plasmodium falciparum 3D7 infected in erythrocytes assessed as parasite killing at 10XEC50 incubated for 48 hrs with compound renewal for every 24 hrs followed by drug removal and incubation for 48 hrs with CFDA-SE labelled fresh erythrocytes by Hoechst 33342 staining based two-color flow cytometry; type: functional, organism-based; conditions: Erythrocyte
[29] = Permeability of the compound across apical to basolateral side in human Caco-2 cells at pH 7.4; type: ADME, cell-based; conditions: Caco-2, pH 7.4, read-out: permeability
Plasmodium falciparum [30] = test: as §1, with “of EC90” for “of EC50”, “to EC90” for “to EC50”, “flaciparum Dd2” for “flaciparum Dd2-B2”; type: functional
Plasmodium falciparum [31] = test: Antiplasmodial activity against multidrug-resistant Plasmodium falciparum Dd2 harboring CARL-I1139K mutant infected in erythrocytes assessed as inhibition of parasite growth incubated for 72 hrs by [3H]hypoxanthine incorporation based microbeta counting analysis; type: functional, organism-based; conditions: Dd2, Erythrocyte
Plasmodium falciparum [32] = test: Antiplasmodial activity against Plasmodium falciparum Dd2-B2 assessed as inhibition of parasite growth incubated for 72 hrs by flow cytometry; type: functional, organism-based
Plasmodium falciparum [33] = test: Antiplasmodial activity against drug-resistant Plasmodium falciparum Dd2-B2 in 2x10^5 bulk culture selection assessed as concentration required to complete parasite killing measured on day 5 under initial selection drug pressure concentration of 3XEC50 by Minimum inoculum of resistance analysis; type: functional; conditions: time 5 day
CYP2D6 [34] = target: T3, CYP2D6; test: Inhibition of CYP2D6 (unknown origin) at 1 uM relative to control; type: ADME
Plasmodium falciparum [35] = test: Antiplasmodial activity against drug-resistant recrudescent Plasmodium falciparum Dd2-B2 in 2x10^5 bulk culture selection assessed as inhibition of parasite growth incubated for 72 hrs by flow cytometry; type: functional, organism-based

Molecule `Cc1nn(C(C)(C)C)c2nc(C3CC3)cc(C(=O)N3CCOc4ccncc43)c12` has an EC50 (Plasmodium falciparum [1]) of 7 nM, a microsomal CLint at 1 µM [2] of 116 µL/min/mg and a Ratio EC50 (Plasmodium falciparum [3]) of 3. For the same molecule, the EC50 (Plasmodium falciparum [4]; Dd2-B2, 72 h) was 37.5 nM, the EC90 (Plasmodium falciparum [4]; Dd2-B2, time 72 hrs) was 68.9 nM and the inhibition at 10 µM (CYP2C19 [5]) was 17.4%. The inhibition at 10 µM (CYP2C9 [6]) was 57.5%, the EC50 (Plasmodium falciparum [7]) was 7 nM and the EC50 (Plasmodium falciparum [8]) was 2.7 nM. For the same molecule, the EC50 (Plasmodium falciparum [9]) was 4 nM, the EC50 (Plasmodium falciparum [10]) was 9 nM and the EC50 (Plasmodium falciparum [11]) was 7 nM. For the same molecule, the inhibition at 10 µM (CYP2D6 [12]) was 86.4%, the Papp B→A [13] was 23.7 ×10⁻⁶ cm/s and the solubility thermodynamic at 2 h, 200 µM [14] was 69 µM (≈ 27 µg/mL). For the same molecule, the EC50 (Plasmodium falciparum [15]) was 6 nM, the Ratio EC50 (Plasmodium falciparum [16]) was 5 and the EC50 (Plasmodium falciparum [17]) was 3 nM. For the same molecule, the EC50 (Plasmodium falciparum [18]) was 0.8 nM, the efflux ratio [19] was 1.4 and the CC50 at 48 h [20] was 4810 nM. For the same molecule, the inhibition at 1 µM (CYP2C9 [21]) was 12.8%, the “Ratio EC50” value [22] was 3.4 and the inhibition at 1 µM (CYP2C19 [23]) was 3.6%. It also gave an inhibition at 10 µM (CYP3A4) of 90.5%, an Activity (Plasmodium falciparum [24]) of 28 nM and a logD at 2 h, 7.5 µM [25] of 4.1. For the same molecule, the EC50 (Plasmodium falciparum [26]) was 16 nM, the hepatocyte CLint at 1 µM [27] was 26 µL/min/1e6 cells and the Activity (Plasmodium falciparum [28]) was “Active”. The Papp A→B [29] was 17.1 ×10⁻⁶ cm/s, the Ratio (Plasmodium falciparum [30]) was 5 and the EC50 (Plasmodium falciparum [31]) was 5 nM. For the same molecule, the EC50 (Plasmodium falciparum [32]; Dd2-B2, 72 h) was 6.8 nM, the EC90 (Plasmodium falciparum [32]; Dd2-B2, time 72 hrs) was 12.3 nM and the Activity (Plasmodium falciparum [33]) was 28 nM. For the same molecule, the inhibition at 1 µM (CYP2D6 [34]) was 43.8%, the EC50 (Plasmodium falciparum [35]; Dd2-B2, 72 h) was 28.3 nM and the EC90 (Plasmodium falciparum [35]; Dd2-B2, time 72 hrs) was 68.3 nM.
